Measured values: patent US20070155803A1, “Protease inhibitors” (ProZymex A/S, priority 2003, published 2007)
Square brackets hold non-standard residues; d marks the D form. Peptide text beside a SMILES is read from it. Phe(3-F) = N[C@@H](Cc1cccc(F)c1)C(=O)O; hPhe = N[C@@H](CCc1ccccc1)C(=O)O; Abu = CC[C@H](N)C(=O)O; azaGly = NNC(=O)O

Tests used:
[1] = molecular target: T1, Human DPP-I (Homo sapiens, UniProt P53634); experiment: Human Dipeptidyl Peptidase I (DPP-I) assay, AFC substrate; type: biochemical; conditions: Gly-Phe-AFC substrate, pH 6.0, read-out: Primary enzymatic screening (IC50) DPP-I
T1 construct: purchased UniZyme A/S
Experimental: Human Dipeptidyl Peptidase I (DPP-I) Assay
Using this assay, the IC50 value of a compound of the invention as a DPP-I inhibitor was determined using an AFC substrate.
100 mM sodium phosphate (8.9 g Na2HPO4; M=177.99), 150 mM KCl (5.6 g KCl; M=74.6) and 1.5 mM EDTA (279 mg EDTA; M=372.2) was dissolved in 500 mL H2O, and pH was adjusted to 6.0. Cysteine*HCl (Sigma C-1276; M=157.6), 1 mg/mL assay buffer, corresponding to 6 mM, was added to the solution for activation of the DPP-I enzyme.
Gly-Phe-AFC*TFA (Enzyme Systems Products AFC-033) was used as the substrate for determination of IC50 values. […] The substrate was solubilized in DMSO to give a 7.5 mM stock solution (2.2 mg of substrate was added to 0.5 mL DMSO).
Human DPP-I (hDDP-I; obtained from UniZyme A/S, DK-2970 Horsholm, Denmark) was stored at −20° C. in a buffer containing 2.5 mM Na-phosphate, 150 mM NaCl, 2 mM cysteamine, 50% glycerol, pH 7.0 at a concentration of 2.5 mg/mL. This stock solution was diluted 200 times in the assay buffer.
Th assay was performed in 96-well plates. […] The excitation wavelength was 400 nm, and the emission was measured at 505 nm for 10 minutes at 37° C. […] In the software (SOFTmax Pro) used for data collection from the fluorometer (Molecular Devices: Gemini XS), it was erisured that the measured slopes were linear (R^2>0.99). […]

[2] = system: β-tryptase; experiment: Tryptase assay; type: biochemical, human
Experimental: Using this assay, the selectivity of a compound of the invention for hDPP-I over β-tryptase was determined, using a fluorogenic substrate.
0.1 M HEPES buffer (pH 7.5) with 0.5 M NaCl.
Rh-Skin β-tryptase (Promega # G7061) was diluted to a final stock solution of 0.08 μg/μL in assay buffer.
Rh-lung β-tryptase (Promega # G5631) was diluted to a final stock solution of 0.08 μg/μL in assay buffer.
Z-ARG-AMC*HCl (BACHEM I1130; 10 mg) was dissolved in 1 mL DMSO, giving a 20 mM solution. Km was determined to be >400 μM.
The assay was performed in 96-well plates. 85 μl assay buffer was added to the well followed by 5 μL enzyme stock. Then 5 μL substrate was added, and subsequently 5 μL 4% DMSO in assay buffer (control) or a compound of the invention (10 μM in the assay) The excitation wavelength was 380 nm, and the emission was measured at 460 nm for 10-20 minutes at […] Each measurement was mad in duplicate. In the software (SOFTmax Pro) used for data collection from the fluorometer (Molecular Devices: Gemini XS), it was ensured that the measured slopes were linear (R^2>0.99).
Data were exported to GraphPad Prism and nonlinear regression was performed using the option Sigmoidal dose-response (variable slope).

[3] = molecular target: T2, CYP1A2 (Homo sapiens, UniProt P05177); experiment: Human CYP1A2 assay (Vivid CYP1A2 Blue Screening Kit); type: in vitro ADME; conditions: 20 μM cutoff; read-out: Metabolism: CYP enzymes (20 μM cutoff or IC50) CYP1A2
T2 construct: purchased PanVera Vivid CYP1A2 Blue Screening Kit; host or cells: insect cells infected with baculovirus (microsomes)
T2 sequence (P05177 2-516 limits assumed): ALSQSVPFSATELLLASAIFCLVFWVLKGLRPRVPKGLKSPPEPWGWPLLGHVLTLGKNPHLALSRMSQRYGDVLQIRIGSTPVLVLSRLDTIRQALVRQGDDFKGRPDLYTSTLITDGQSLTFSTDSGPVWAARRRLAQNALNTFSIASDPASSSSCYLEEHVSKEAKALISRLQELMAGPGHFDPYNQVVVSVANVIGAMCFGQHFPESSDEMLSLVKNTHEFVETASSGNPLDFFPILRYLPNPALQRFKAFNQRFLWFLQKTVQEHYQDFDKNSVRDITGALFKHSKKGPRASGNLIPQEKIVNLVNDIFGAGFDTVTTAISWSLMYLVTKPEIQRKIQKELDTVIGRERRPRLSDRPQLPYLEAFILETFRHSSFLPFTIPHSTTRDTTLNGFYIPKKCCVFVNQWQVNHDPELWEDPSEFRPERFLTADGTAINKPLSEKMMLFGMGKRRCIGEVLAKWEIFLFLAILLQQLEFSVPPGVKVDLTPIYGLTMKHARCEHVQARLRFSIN
Experimental: This assay was used to determine the effect of a compound of the invention on the CYP1A2 liver metabolizing enzyme.
Vivid® CYP1A2 Blue Screening Kit from PanVera was used.
Vivid®CYP450 Reaction Buffer I: 200 mM potassium phosphate buffer, pH 8.
CYP1A2 baculosoniese® reagent: CYP1A2 and […] (P450-specific content: 1.1 μM). Microsomes prepared from insect cells that were infected with baculovirus containing the cDNA for human CYP1A2 and rabbit cytochrome P450 reductase.
Regenerating System: 333 mM glucose-6-phosphate and 40 U/mL glucose-6-phosphate dehydrogenase in 100 mM potassium phosphate buffer, pH 8.
Vivid® CYP1A2 Blue Substrate.
Vivid® Blue Standard: 3-cyano-7-hydroxycoumarin.
10 mM NADP^+ in 100 mM potassium phosphate buffer, pH 8.
(§1) Tubes thawed on ice. 2× reaction buffer dispensed (room temperature) in two eppendorf tubes (for Mix A and Mix B).
(§2) Controls or compounds of the invention: Diluted to a concentration of 50 μM. Positive control compound: α-naphthoflavone.
(§3) Negative controls: DMSO and H2O.
Mix A: 485 μL reaction buffer, 10 μL regeneration system, 5 μL Baculosome reagent. Mixed gently and placed on ice. […]
In a 96-well plate (Costar c-3904), 40 μL of 50 μM sample dispensed. […] Fluorescence determined (Molecular Devices, SPECTRAmax Gemini EM): Ex: 409 nm, Em: 460 nm, at 37° C. for 20 min. (Automix: 5 s, top read.).

[4] = molecular target: T3, CYP2C9 (Homo sapiens, UniProt P11712); experiment: CYP2C9 assay (Vivid CYP2C9 Red Screening Kit); type: in vitro ADME; conditions: 20 μM cutoff; read-out: Metabolism: CYP enzymes (20 μM cutoff or IC50) CYP2C9
T3 construct: purchased PanVera Vivid CYP2C9 Red Screening Kit
Experimental: as §1, §2, §3
(§4) Mix A: 485 μL reaction buffer, 10 μL regeneration system, 5 μL Baculosome reagent. Mixed gently and placed on ice.
(§5) Mix B: 88.5 μL reaction buffer, 1.5 μL substrate, 10 μL 10 mM NADP^+.
(§6) In a 96-well plate (Costar c-3904), 40 μL of 50 μM sample dispensed. 50 μl Mix A added. Incubated 20 min. at rt. Then, 10 μl of Mix B added. Fluorescence determined (Molecular Devices, SPECTRAmax Gemini EM): Ex: 409 nm, Em: 460 nm, at 37° C. for 20 min. (Automix: 5 s, top read.).
(§7) Following the procedure for CYP1A2, using the appropriate kits below, the effect of a compound of the invention on the other CYP enzymes was determined:
Vivid® CYP2C9 Red Screening Kit from PanVera.

[5] = molecular target: T4, CYP2C19 (Homo sapiens, UniProt P33261); experiment: CYP2C19 assay (Vivid CYP2C19 Red Screening Kit); type: in vitro ADME; conditions: 20 μM cutoff; read-out: Metabolism: CYP enzymes (20 μM cutoff or IC50) CYP2C19
T4 construct: purchased PanVera Vivid CYP2C19 Red Screening Kit
Experimental: as §1, §2, §3, §4, §5, §6, §7
Vivid® CYP2C19 Red Screening Kit from PanVera.

[6] = Metabolic stability in rat liver microsomes; type: in vitro ADME; conditions: pH 7.4; rat liver microsomes 0.3 mg/mL, test compound 1 μM, 37° C.; read-out: Metabolic stability (t1/2 in min.) Rat liver microsomes
Experimental: Assay for Determination of Metabolic Stability is Rat Liver Microsomes
The assay was performed at Cerep (Seattle) according to the protocol described by Kuhnz et. al. (Kuhnz, W., Gieschen, H. Drug Metab. Dispos., 26, 1120-1127), using rat liver microsomes (0.3 mg/mL), test compound (1 μM), NADP (1 mM), and G6P (5 mM), and G6PDHase (1 U/mL) with 0.6% methanol/0.6% acetonitrile in water. Incubation was performed at 37° C. in phosphate buffer (50 mM, pH=7.4), and the samples were analyzed for remaining product ion (selected reaction monitoring)by HPLC-MS/MS (Thermo Finnigan) at 0, 15, 30, 45 and 60 min. intervals.

T1 sequence (P53634 231-394 limits assumed): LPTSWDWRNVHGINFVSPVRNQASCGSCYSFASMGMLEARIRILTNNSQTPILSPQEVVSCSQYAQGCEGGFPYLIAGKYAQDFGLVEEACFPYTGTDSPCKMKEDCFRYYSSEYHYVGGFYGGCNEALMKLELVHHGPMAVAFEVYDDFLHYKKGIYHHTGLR
T1 sequence (P53634 395-463 limits assumed): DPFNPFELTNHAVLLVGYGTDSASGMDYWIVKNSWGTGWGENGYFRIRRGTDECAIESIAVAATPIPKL
T1 sequence (P53634 25-143 limits assumed): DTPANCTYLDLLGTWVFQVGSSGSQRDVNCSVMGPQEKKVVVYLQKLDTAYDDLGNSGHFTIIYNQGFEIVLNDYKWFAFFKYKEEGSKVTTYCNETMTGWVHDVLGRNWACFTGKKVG
T3 sequence (P11712 whole entry): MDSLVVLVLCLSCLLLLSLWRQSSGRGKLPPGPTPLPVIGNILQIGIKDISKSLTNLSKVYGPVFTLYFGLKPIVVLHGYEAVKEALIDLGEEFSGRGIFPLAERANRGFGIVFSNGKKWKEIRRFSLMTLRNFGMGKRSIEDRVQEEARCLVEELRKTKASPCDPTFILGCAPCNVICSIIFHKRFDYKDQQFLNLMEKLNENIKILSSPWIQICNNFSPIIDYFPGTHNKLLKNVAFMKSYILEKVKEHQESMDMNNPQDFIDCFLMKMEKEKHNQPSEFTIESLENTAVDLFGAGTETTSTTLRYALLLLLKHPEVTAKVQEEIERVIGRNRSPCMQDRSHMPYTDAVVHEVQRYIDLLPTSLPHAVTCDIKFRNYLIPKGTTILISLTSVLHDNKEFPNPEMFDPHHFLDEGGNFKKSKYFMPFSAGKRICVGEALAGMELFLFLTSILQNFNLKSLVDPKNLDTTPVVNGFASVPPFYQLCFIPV
T4 sequence (P33261 whole entry): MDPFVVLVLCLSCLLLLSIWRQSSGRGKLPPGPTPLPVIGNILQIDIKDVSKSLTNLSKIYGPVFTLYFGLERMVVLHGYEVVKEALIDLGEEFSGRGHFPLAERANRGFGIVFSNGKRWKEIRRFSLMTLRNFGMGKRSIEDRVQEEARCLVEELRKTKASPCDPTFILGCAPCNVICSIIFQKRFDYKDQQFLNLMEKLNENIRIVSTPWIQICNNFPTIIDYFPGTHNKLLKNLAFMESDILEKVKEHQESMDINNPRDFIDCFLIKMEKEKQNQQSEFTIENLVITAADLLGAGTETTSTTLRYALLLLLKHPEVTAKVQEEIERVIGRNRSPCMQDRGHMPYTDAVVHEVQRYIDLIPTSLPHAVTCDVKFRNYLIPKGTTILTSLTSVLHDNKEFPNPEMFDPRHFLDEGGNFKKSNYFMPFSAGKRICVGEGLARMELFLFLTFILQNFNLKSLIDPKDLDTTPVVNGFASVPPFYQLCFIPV

With `CC[C@H](N)C(=O)NNC(=O)N[C@@H](CCc1ccccc1)C(=O)N[C@@H](Cc1cccc(F)c1)C(N)=O` [Example 11, 1-(2S-2-Aminobutanoyl)-4-[2S-N-[2S-3-(m-fluorophenyl)propan-2-yl-amide]-4-phenylbutan-2-yl-amide]semicarbazide] (H-[Abu][azaGly][hPhe][Phe(3-F)]-NH2) the IC50 [1] was 0.04 ± 0.006 µM, the “Inhibition of tryptase (in words)” value [2] was “does not inhibit” and the IC50 ([2]; β-tryptase, 10 μM cutoff, read-out: Secondary enzymatic screening (10 μM cutoff or IC50) Tryptase) was over 10 µM. It also gave an IC50 [3] of over 20 µM, an IC50 [4] of over 20 µM and an IC50 [5] of over 20 µM. It also gave a half-life at 1 μM [6] of 23 min.
